Biological target: SARM1 (Homo sapiens (Human), UniProt Q6SZW1)
Assay: ARM-SAM-TIR SARM1 IC50 assay (NADase activity, RapidFire mass spectrometry)
Format: biochemical
Conditions: ARM-SAM-TIR lysate 5 µg/mL, 2 h pre-incubation with compound, 5 µM NAD+, 2 hr at room temperature
Source text: This Example describes an assay of ARM-SAM-TIR NADase activity and use of this assay to measure the efficacy of compounds of Formula I/II to block SARM1 mediated NAD+ cleavage. This assay was optimized in such a way as to characterize the efficacy of the compounds in Formula I/IIto inhibit SARM1 activity and to calculate an IC50 value for each compound. This assay makes use of […], which encompasses the ARM, SAM and TIR domains. […] The next day, the cells were transfected with 15 μg ARM-SAM-TIR expression plasmid, SEQ ID NO: 1. The cultures were supplemented with 1 mM NR at time of transfection to minimize toxicity from ARM-SAM-TIR overexpression. Forty-eight hours after transfection, cells were harvested, pelleted by centrifugation at 1,000 rpm (Sorvall ST 16R centrifuge, Thermo Fisher), and washed once with cold PBS (0.01 M phosphate buffered saline NaCl 0.138 M; KCl 0.0027 M; pH 7.4). The cells were resuspended in PBS with protease inhibitors (cOmpleteTM protease inhibitor cocktail, Roche product # 11873580001) and cell lysates were prepared by sonication (Branson Sonifer 450, output = 3, 20 episodes of stroke). The lysates were centrifuged (12,000×g for 10 min at 4° C.) to remove cell debris and the supernatants (containing ARM-SAM-TIR protein) were stored at -80° C. for later use in the in vitro ARM-SAM-TIR NADase assay (see below). Protein concentration was determined by the Bicinchoninic (BCA) method and used to normalize lysate concentrations. The enzymatic assay was performed in a 384-well polypropylene plate in Dulbecco's PBS buffer in a final assay volume of 20 μL. […] The reaction was initiated by addition of 5 μM final assay concentration of NAD+ as substrate. After a 2 hr room temperature incubation, the reaction was terminated with 40 μL of stop solution of 7.5% trichloroactetic acid in acetonitrile. The NAD+ and ADPR concentrations were analyzed by a RapidFire High Throughput Mass Spectrometry System (Agilent Technologies, Santa Clara, CA) using an API4000 triple quadrupole mass spectrometer (AB Sciex Framingham, MA).

SARM1, sequence (Q6SZW1 other isoform, or with tags, fused parts or gaps): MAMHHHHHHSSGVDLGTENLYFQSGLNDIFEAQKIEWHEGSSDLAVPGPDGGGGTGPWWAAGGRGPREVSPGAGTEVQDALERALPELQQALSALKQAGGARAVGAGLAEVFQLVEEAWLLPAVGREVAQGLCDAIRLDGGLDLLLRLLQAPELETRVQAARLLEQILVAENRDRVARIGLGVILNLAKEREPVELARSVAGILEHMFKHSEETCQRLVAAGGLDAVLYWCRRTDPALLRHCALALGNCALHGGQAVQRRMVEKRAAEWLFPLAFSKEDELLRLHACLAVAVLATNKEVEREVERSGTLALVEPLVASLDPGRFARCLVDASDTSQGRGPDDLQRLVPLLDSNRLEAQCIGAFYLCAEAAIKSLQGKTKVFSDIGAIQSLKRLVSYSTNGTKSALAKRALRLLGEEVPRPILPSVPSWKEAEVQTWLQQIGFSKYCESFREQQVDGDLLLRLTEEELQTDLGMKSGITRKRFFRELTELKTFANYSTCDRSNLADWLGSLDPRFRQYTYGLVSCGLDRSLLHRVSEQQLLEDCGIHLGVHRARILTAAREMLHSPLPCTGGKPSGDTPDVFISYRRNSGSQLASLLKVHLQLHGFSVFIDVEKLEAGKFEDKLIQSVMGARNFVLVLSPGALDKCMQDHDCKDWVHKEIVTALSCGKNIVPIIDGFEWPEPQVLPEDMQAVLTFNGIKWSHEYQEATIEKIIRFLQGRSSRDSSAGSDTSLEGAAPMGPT

SMILES	IC50
O=C(NCc1ccccc1)c1cncc2c(-c3ccncc3)n[nH]c12 [Example 6]	100 to 1000 nM
O=C(NCc1ccc(Cl)cc1)c1cncc2c(-c3ccncc3)n[nH]c12 [Example 4]	< 100 nM
O=C(NCc1ccc(Cl)c(F)c1)c1cccc2c(-c3ccncc3F)n[nH]c12 [Example 12]	< 100 nM
O=C(NCc1ccc(Cl)cc1)c1cccc2c(-c3ccncc3F)n[nH]c12 [Example 10]	< 100 nM
O=C(NCc1ccc(Cl)s1)c1cccc2c(-c3ccncc3F)n[nH]c12 [Example 13]	100 to 1000 nM
O=C(NCc1ccc(Cl)cc1)c1cccc2c(-c3ccncc3)n[nH]c12 [Example 1]	< 100 nM
C[C@H](NC(=O)c1cccc2c(-c3ccncc3)n[nH]c12)c1ccc(Cl)cc1 [Example 8]	> 10000 nM
O=C(NCc1ccc(Cl)cc1)c1ccnc2c(-c3ccncc3)n[nH]c12 [Example 5]	< 100 nM
O=C(NCc1ccccc1)c1cccc2c(-c3ccncc3)n[nH]c12 [Example 2]	100 to 1000 nM
O=C(NCc1ccc(Cl)nc1)c1cccc2c(-c3ccncc3)n[nH]c12 [Example 9]	100 to 1000 nM
O=C(NCc1ccccc1)c1ccnc2c(-c3ccncc3)n[nH]c12 [Example 7]	1010 to 5000 nM

Reference: patent US20230286978A1, “INDAZOLE DERIVATIVES AS INHIBITORS OF SARM1” (Disarm Therapeutics, Inc., priority 2020, published 2023)
